Measured values as given in ChEMBL document CHEMBL5608173, “Discovery of novel natural-product-derived mutant isocitrate dehydrogenases 1 inhibitors: Structure-based virtual screening, biological evaluation and structure-activity relationship study” (Eur J Med Chem, 2024).

Columns and labels:
HT-1080 [1] = assay: Induction of apoptosis in human HT-1080 cells assessed as late apoptotic cells at 6 uM incubated for 12 hrs by Annexin V-FITC/PI staining based flow cytometric analysis (reference value: 0.60 %); type: functional
HT-1080 [2] = assay: Induction of apoptosis in human HT-1080 cells assessed as necrotic cells at 2 uM incubated for 48 hrs by Annexin V-FITC/PI staining based flow cytometric analysis (reference value: 0.45 %); type: functional
[3] = AUC (0 to t) in Sprague-Dawley rat at 0.5 mg/kg, iv measured after 24 hrs by LC-MS/MS analysis; type: ADME, organism-based; conditions: in vivo

Q: For `COc1cc(O)c(-c2cc(-c3ccc(O)cc3)nc(N3CCNCC3)n2)cc1CC=C(C)C`, which Activity (HT-1080 [1]) is on record?
A: 2.92%

Q: And the Activity (HT-1080 [2])?
A: 1.16%

Q: What about the AUC(0-t) at 24 h [3] of the same molecule?
A: 236 ng·h/mL
